In US20250325676A1, “CAMPTOTHECIN PRODRUG AND PHARMACEUTICAL COMPOSITION THEREOF” (TIANJIN HEMAY ONCOLOGY PHARMACEUTICAL CO., LTD, priority 2022, published 2025):
Like-named read-outs stand apart in the source and are kept apart here.

How the values were obtained:
[1] = system: SW620; assay: In vitro inhibition of human tumor cells, SW620, SRB method; type: cell-based
Text: (§1) The cells were allowed to adhere overnight.
(§2) Trichloroacetic acid was removed. […] Excess SRB was removed.
(§3) The DMSO concentration was 0.1%.

[2] = system: human pancreatic cancer BxPC-3; settings: 30 mg/kg i.v. qw × 2; BxPC-3 large tumors after irinotecan
Method: (§6) When the tumor volume of the allogeneic transplantation was about 100 to 300 mm^3 and remained stable, the experimental animals were randomly divided into groups according to the size of the tumor volume (day 0) by using a remainder method. The tumor volume was measured 2 to 3 times a week. At the end of the dosage period, the experimental animals were sacrificed. The subcutaneous tumors were peeled and weighed. The anti-tumor activity of the drug against the model was evaluated based on tumor volume and tumor weight-related data.
(§7) The calculation formula of the tumor volume was: Volume=0.5×long diameter×short diameter×short diameter.
(§8) V0 was the resulting tumor volume measured at the time of dosing in groups (i.e., d0) and Vt was the tumor volume at each measurement.
(§9) T was the subject and C was the model control.
(§10) TRTV was the average RTV of the subject, and CRTV was the average RTV of the model control group.
(§11) Wn: average body weight of each group of experimental animals on day n, and W0: average body weight of each group of experimental animals on day 0.
(§12) In the large tumor efficacy test after the second grouping of the G5 group, since the number of samples in each group of G6.1 and G6.4 was less than three, the relevant data of the large tumor efficacy test were statistically analyzed among groups using the T-Test method.

[3] = system: NCI-N87; assay: In vitro inhibition of human tumor cells, NCI-N87, MTT method; type: cell-based
[4] = system: MDA-MB-468; assay: In vitro inhibition of human tumor cells, MDA-MB-468, SRB method
Method: 1.1.2 Cell culture method: Cells were cultured in complete medium, 37° C., 5% CO2, saturated humidity to log growth phase (adherent cells generally attended to complete fusion), and cells were collected for subsequent experiments (adherent cells were first digested with trypsin/ethylene diamine tetraacetic acid (EDTA) to remove adherent).
1.1.3 96-well cell culture plates (hereinafter referred to as 96-well plates) were inoculated with a certain number of cells (see Table 1 for details). The cells were allowed to adhere overnight. […] Finally, the total amount of cell protein in the assay wells was determined by the SRB method, or the cell viability was determined by the MTT method:
The culture medium was aspirated from the wells and the cells were fixed for 1 hour or more by adding 10% trichloroacetic acid. Trichloroacetic acid was removed. The resultant was washed with H2O and stained with 0.4% SRB for 15 to 30 minutes. Excess SRB was removed. The resultant was washed with 1% acetic acid. The protein-bound SRB was dissolved by adding 10 mM of 100 μl Tris (trishydroxymethylaminomethane). Tests were carried out at the wavelength of 570 nm.
1.1.4 dilution and addition of β-glucuronidase: 1 to 2 mg of β-glucuronidase was weighed and dissolved in PBS to give a 2 mg/ml of stock solution. […] 80 μl of enzyme working solution was added to the enzyme-containing assay wells. The amount of β-glucuronidase was 1 μg/wells. No enzyme-containing assay wells were added to the 80 μl of complete medium.
The assay wells were charged with 20 μl of 10× compound working solution. The final volume was 200 μl per well. The DMSO concentration was 0.1%.
1.1.6 Compound inhibition activity calculation: The test included a compound test group, a compound-free positive solvent control group (PC) and a compound-free negative solvent control group (NC). […] The average inhibition rate and the standard deviation (SD) were obtained from the repeated test wells. The average inhibition rate was plotted on the basis of the compound concentration as an abscissa and distributed in the form of logarithms. The curve was fitted to the Logistic 4 parameter equation. […] The test was generally repeated to obtain 3 valid results.

[5] = system: BxPC-3; assay: In vitro inhibition of human tumor cells, BxPC-3, MTT method; type: cell-based
Method: as §1
(§4) Adherent cells: Culture medium was aspirated and 100 μl/wells of basal culture (generally refers to medium without fetal bovine serum (FBS) and other additives) containing 0.5 mg/ml MTT were added. The cells were cultured for 3 hours. MTT-containing basal medium was aspirated and 100 μl/wells of DMSO were added to dissolve formazan.
(§5) Unstably adherent cells: Unstably adherent cells were directly added to the MTT solution to achieve the concentration of 0.5 mg/ml and cultured for 3 hours. The ternary solution in an equal volume to the system was added to the system to dissolve the formazan.
as §3

[6] = system: NCI-H460; assay: In vitro inhibition of human tumor cells, NCI-H460, MTT method; type: cell-based
Method: as §1, §4, §5, §3

[7] = system: human pancreatic cancer BxPC-3; assay: Growth of human pancreatic cancer BxPC-3 in allogeneic transplantation model; type: in vivo, nude mice; settings: 25 mg/kg i.v. qw × 2; BxPC-3 model
Method: as §6, §7, §8, §9, §10, §11, §12

[8] = system: HCT116; assay: In vitro inhibition of human tumor cells, HCT116, MTT method; type: cell-based
Method: as §1, §4, §5, §3

[9] = system: LoVo; assay: In vitro inhibition of human tumor cells, LoVo, SRB method; type: cell-based
Text: as §1, §2, §3

[10] = No βGU (direct effects of compound on cells)

## (2S,3S,4S,5R,6S)-6-(3-((1-(6-((4′-((E)-(8-amino-1-hydroxy-5,7-disulfonicnaphthalen-2-yl)diazenyl)-3,3′-dimethyl-[1,1′-biphenyl]-4-yl)amino)-6-oxohexyl)-1H-1,2,3-triazol-4-yl)methoxy)-4-(((S)-4-ethyl-4-hydroxy-3,14-dioxy-3,4,12,14-tetrahydro-1H-pyrano[3′,4′:6,7]indolazino[1,2-b]quinolin-9-yl)oxy)methyl)phenoxy)-3,4,5-trihydroxytetrahydro-2H-pyran-2-carboxylate trisodium [Example 24]
[1]; Adding βGU
  IC50: 6.5 nM
[1]; No βGU
  IC50: 915 nM
[2]
  Relative volume RTV (X ± S.D.): 1.04 ± 0.07
  T/C (%): 25.5%
  Tumor inhibition rate (%): 75.3%
  Tumor weight (g, X ± S.D.): 0.742 ± 0.267 g
[3]; Adding βGU
  IC50: 61 nM
[3]; No βGU
  inhibition rate at 2 μM: 2 μM about 34.4%
[4]; Adding βGU
  IC50: 11 nM
[4]; No βGU
  IC50: 171 nM
[5]; Adding βGU
  IC50: 19 nM
[5]; No βGU
  IC50: 1270 nM
[6]; Adding βGU
  IC50: 39 nM
[6]; No βGU
  IC50: 1720 nM
[7]
  Relative volume RTV (X ± S.D.): 0.46 ± 0.12
  T/C (%): 9.6%
  Tumor inhibition rate (%): 92.0%
  Tumor weight (g, X ± S.D.): 0.134 ± 0.080 g
[8]; Adding βGU (β-glucuronidase)
  IC50: 14 nM
[8]; [10]
  IC50: 339 nM
[9]; Adding βGU
  IC50: 18 nM
[9]; No βGU
  IC50: 764 nM

## (2S,3S,4S,5R,6S)-6-(3-((1-(6-((4′-((E)-(8-amino-1-hydroxy-5,7-disulfonicnaphthalen-2-yl)diazenyl)-[1,1′-biphenyl]-4-yl)amino)-6-oxohexyl)-1H-1,2,3-triazol-4-yl)methoxy)-4-((((S)-4,11-diethyl-4-hydroxy-3,14-dioxo-3,4,12,14-tetrahydro-1H-pyrano[3′,4′:6,7]indolazino[1,7]quinolin-9-yl)oxy)methyl)-2-methylphenoxy)-3,4,5-trihydroxytetrahydro-2H-pyran-2-carboxylate trisodium [Example 18]
[1]; Adding βGU
  IC50: 6.8 nM
[1]; No βGU
  IC50: 204 nM
[3]; Adding βGU
  IC50: 29 nM
[3]; No βGU
  inhibition rate at 2 μM: 2 μM about 49.3%
[4]; Adding βGU
  IC50: 5.5 nM
[4]; No βGU
  IC50: 110 nM
[5]; Adding βGU
  IC50: 17 nM
[5]; No βGU
  IC50: 1620 nM
[6]; Adding βGU
  IC50: 7.6 nM
[6]; No βGU
  IC50: 533 nM
[8]; Adding βGU (β-glucuronidase)
  IC50: 6.5 nM
[8]; [10]
  IC50: 186 nM
[9]; Adding βGU
  IC50: 19 nM
[9]; No βGU
  IC50: 812 nM

## (2S,3S,4S,5R,6S)-6-(3-((1-(6-((4′-((E)-(8-amino-1-hydroxy-5,7-disulfonicnaphthalen-2-yl)diazenyl)-[1,1′-biphenyl]-4-yl)amino)-6-oxohexyl)-1H-1,2,3-triazol-4-yl)methoxy)-4-((((S)-4-ethyl-4-hydroxy-3,14-dioxo-3,4,12,14-tetrahydro-1H-pyrano[3′,4′:6,7]indolazino[1,2-b]quinolin-9-yl)oxy)methyl)phenoxy)-3,4,5-trihydroxytetrahydro-2H-pyran-2-carboxylate trisodium [Example 29]
[1]; Adding βGU
  IC50: 9.6 nM
[1]; No βGU
  IC50: 350 nM
[3]; Adding βGU
  IC50: 64 nM
[3]; No βGU
  inhibition rate at 2 μM: 2 μM about 31.0%
[4]; Adding βGU
  IC50: 14 nM
[4]; No βGU
  IC50: 788 nM
[5]; Adding βGU
  IC50: 38 nM
[5]; No βGU
  IC50: 916 nM
[6]; Adding βGU
  IC50: 30 nM
[6]; No βGU, 2 μM
  inhibition rate at 2 μM: 2 μM about 43.9%
[8]; Adding βGU (β-glucuronidase)
  IC50: 17 nM
[8]; [10]
  IC50: 1350 nM
[9]; Adding βGU
  IC50: 55 nM
[9]; No βGU
  IC50: 1200 nM

## (2S,3S,4S,5R,6S)-6-(3-((1-(8-((4′-((E)-(8-amino-1-hydroxy-5,7-disulfonicnaphthalen-2-yl)diazenyl)-3,3′-dimethyl-[1,1′-biphenyl]-4-yl)amino)-8-oxooctyl)-1H-1,2,3-triazol-4-yl)methoxy)-4-((((S)-4,11-diethyl-4-hydroxy-3,14-dioxy-3,4,12,14-tetrahydro-1H-pyrano[3′,4′:6,7]indolazino[1,2-b]quinolin-9-yl)oxy)methyl)-2-methylphenoxy)-3,4,5-trihydroxytetrahydro-2H-pyran-2-carboxylate trisodium [Example 48]
[1]; Adding βGU
  IC50: 10 nM
[1]; No βGU
  IC50: 230 nM
[3]; Adding βGU
  IC50: 52 nM
[3]; No βGU
  IC50: 1200 nM
[4]; Adding βGU
  IC50: 7.3 nM
[4]; No βGU
  IC50: 94 nM
[5]; Adding βGU
  IC50: 28 nM
[5]; No βGU
  IC50: 432 nM
[6]; Adding βGU
  IC50: 6.8 nM
[6]; No βGU
  IC50: 419 nM
[8]; Adding βGU (β-glucuronidase)
  IC50: 5.9 nM
[8]; [10]
  IC50: 119 nM
[9]; Adding βGU
  IC50: 28 nM
[9]; No βGU
  IC50: 372 nM
